Entries after “also recorded” stand apart in the source; their conditions may differ. Where two headings read alike, the source gives them in different places.
Assays:
human whole blood [1] = assay: VWF recovery experiment in 10 mM NAC treated blood, microfluidic system; assay type: cell-based
Description: VWF recovery experiments were performed using 3 individual's 10 mM NAC samples prepped as detailed above. 19 IU/mL of VWF (Humate) was added to these samples and they were immediately perfused through the microfluidic system. Occlusion times and platelet intensities were measured as above.
To test if the NAC prevented arterial thrombosis by modifying VWF as hypothesized, new VWF was added to blood samples treated with 10 mM NAC. […] Although OTs of the recovery samples were higher than the control, the average RPA rates for the control and recovery conditions were similar. By shifting the control curve right, simulating a 76 s increase in lag time, the two curves show a high degree of concordance (FIG. 9).

[2] = test system: occlusive thrombi in common carotid artery of C57 mice; assay: Murine modified-Folts model of arterial thrombosis (carotid stenosis and crush injury); assay type: in vivo, mouse
Description: Formation of occlusive thrombi was measured using a murine Modified-Folts model (Kim D A, et al. Platelet α-granules are required for occlusive high-shear-rate thrombosis. Blood Adv. 2020;4:3258-3267). C57 mice were used under conditions approved by the university animal use and care committees. Following isolation of the common carotid artery, blood flow through the vessel was measured with a flow probe (Transonic Systems). A 6.0 silk suture was then tied around the vessel and tightened until the measured flow rate was approximately 50% of the initial value. This creates a stenosis region with high shear-rate at the apex. The artery is then crushed with forceps to damage the endothelial cells and expose collagen in the extracellular matrix.
In single injection experiments, 13 mice were treated with either 200 mg/kg NAC, 400 mg/kg NAC, or PBS. 100 μL of freshly prepared, neutralized NAC solution or vehicle was I.V. injected approximately 45 minutes prior to the crush injury.
For repeat injection experiments, mice were given either PBS, 200 mg/kg, or 400 mg/kg NAC through a 100 μL I.V. injection 6 hr prior to surgery. Mice were then given a second injection of PBS, 200 mg/kg, or 400 mg/kg NAC approximately 45 minutes prior to the crush injury. Additionally, 4 mice were given a dose of 400 mg/kg NAC through an 100 μL injection 6 hr prior to the surgery, followed by a second injection of PBS immediately prior to the crush injury.
Blood flow measurements were taken with a Transonic flow probe and acquired with Powerlab software (ADInstruments) (Id.). Time to initial occlusion is defined as the time between the crush injury and the first point where flow reaches approximately 0. After occlusion, if flow remains around 0 then the occlusion is characterized as stable. If instead the thrombus detaches and flow increases, the clot is labelled an unstable occlusion.
Statistical significance in time to initial occlusion was determined using unpaired student t-test (p <0.05). Differences in thrombus stability are determined using a Pearson's Chi-squared test (p <0.05).

[3] = Zhou et al. 2015; cited from earlier work
tail bleeding in mice [4] = assay: Tail bleeding model; assay type: in vivo, mouse; details: 400 mg/kg NAC; PBS 2.35 minutes, p=0.14
Description: Bleeding times were assessed using the tail bleeding model described previously (Liu Y, Standardizing a simpler, more sensitive and accurate tail bleeding assay in mice. World J Exp Med. 2012;2:30). Briefly, mice were anesthetized and the distal 3 mm segment of the tail was transected and placed in a vial of warm saline. The injuries were monitored visually to determine the time it took for bleeding to cease.

[5] = Olsson et al. 1988; cited from earlier work
[6] = test system: platelet aggregation in human whole blood; assay: Brightfield platelet intensity (lag time, rapid platelet accumulation rate) in the microfluidic model; assay type: cell-based
Description: (§1) For each chip, the mass flow rate of each outlet channel and brightfield images of two stenotic regions were acquired. Mass flow rates for each channel were measured using four mass balances (Ohaus Scout) connected to the device outlets. Occlusion time was defined as the difference between the time blood enters the stenosis region of the microfluidic device and the time when the mass balances register their peak mass. A brightfield, upright microscope (Leica DM6000B) was used in conjunction with a CCD camera (Pixelfly, PCO) to image the stenotic regions of the middle two channels as the occlusive thrombus formed. Images were taken once per second with a 40× magnification. These images were later thresholded into black and white images to identify platelet rich thrombi from the background blood (ImageJ). Average platelet intensity is defined as the average B/W value of the stenosis region. A value of 0 represents a clean channel with no platelets and increasing values indicate platelet accumulation.
(§2) Occlusion times for each concentration were tested using an unpaired Student's t-test. For survival curves, each possible combinations of pairs of concentrations were tested using a log-rank test. Visual measurement of platelet intensities for each concentration were compared using a Mann-Whitney U test. Statistical significance was determined by p<0.05.
(§3) N-acetyl cysteine was added to blood to create final concentrations of 3 mM, 5 mM and 10 mM. For each human subject, a fresh solution of concentrated NAC (Sigma Aldrich) was created in PBS and neutralized to a pH of 7 with NaOH. The concentrated NAC solution was then diluted so that the same volume of NAC solutions was added to each sample. Negative control (OmM) samples were similarly diluted with 0.5 mL of PBS in 15 mL blood. In three individuals, additional experiments were performed at concentrations of 7.5 mM, 20 mM and 40 mM. For all experiments, NAC was allowed to incubate in the blood at room temperature on a shaker for 30 minutes prior to testing.
Brightfield measurements of platelet aggregation were used to establish whether the increase in occlusion time observed in 3 mM and 5 mM cases is primarily due to effects on initial platelet attachment (lag time) or the platelet accumulation rate (RPA). Lag time is defined as the time required for the average platelet intensity measurements to increase to 1% of their maximal value. Average lag times for 0 mM, 3 mM, 5 mM NAC experiments are 49 s, 65 s and 107 s, respectively. The small increases in lag time for 3 mM and 5 mM treatments cannot account for the 125-325 s increases in occlusion time seen in the 3 mM and 5 mM conditions. This is instead explained by a decrease in the rapid platelet accumulation rate, defined as the slope of the platelet intensity graph (FIG. 2B). […] The slope of the platelet intensity curve decreases as NAC concentration increases, with 10 mM NAC having a negligible slope. When the RPA rate for each individual is normalized to the individual's control RPA rate, the platelet aggregation rates for 3 mM, 5 mM and 10 mM are 0.66, 0.38 and −0.12, respectively (FIG. 2D, p<0.01 compared to control for all conditions). The small negative aggregation rate for 10 mM is an artifact caused by mixing of blood and PBS at the interface between the priming solution and the sample.

[7] = test system: occlusive thrombi in common carotid artery of C57 mice; assay: Murine modified-Folts model of arterial thrombosis (carotid stenosis and crush injury); assay type: in vivo, mouse; details: 200 mg/kg NAC 6 hrs prior and immediately prior to crush injury
[8] = Elimination of NAC from mouse plasma (literature); assay type: in vivo; details: calculated from half-life of 34 minutes
human whole blood [9] = assay: Occlusion time in a stenotic microfluidic model of arterial thrombosis; assay type: cell-based; details: for Average occlusion time: 30 min incubation, shear ~7,500 s-1, untreated 124 s; for Occlusion time, weak NAC responders: 0 mM 112 s; for Occlusion time, strong NAC responders: 0 mM 136 s
From the text: Microfluidic tests were run using a microfluidic system previously described (Griffin M T, et al. Inhibition of high shear arterial thrombosis by charged nanoparticles. Biomicrofluidics 2018;12). The chip contains a single inlet split into four outlet channels 475 μm wide and 250 μm tall. Within each outlet channel is a stenotic region 800 μm long where the height decreases to 70 μm. Flow is controlled using a hydraulic pressure head created by a raised reservoir connected to the inlet which generates an initial shear rate of ˜7,500 s-1 in the stenotic region. Channels are coated overnight with 100 μg/mL collagen Type I (Chrono-Log Corp) in 0.9% saline. Blood is filtered with a 37 μm nylon mesh immediately prior to testing to prevent debris from entering the chip.
as §1, §2
Blood was collected from 10 healthy adult volunteers. Subjects were recruited in accordance with Georgia Institute of Technology's Institutional Review Board Guidelines (IRB #17315). Subjects with known bleeding disorders, a history of anti-platelet medications within 10 days of donation, anemia or transmittable blood disease were excluded from the study. Standard phlebotomy techniques were used to obtain blood. Briefly, 60 mL of blood was drawn slowly through a 21 G needle into a 60 ml syringe containing 0.21 mL of a 1000 USP/mL solution of heparin sodium (Fisher Scientific) in PBS to achieve a heparin concentration of […] in the collected blood. Complete Blood Counts (CBCs) were also performed on all donor samples. All tests were run within 4 hours of the blood draw.
as §3
To test the effect of N-acetylcysteine on reducing arterial thrombosis in human blood, whole blood was perfused collected from 10 healthy human subjects through a stenotic microfluidic channel coated with type I collagen. A constant pressure head of 16 mmHg was formed using an elevated upstream reservoir to create shear rates of ˜7,500 s-1 in the stenotic region and ˜800 s-1 in the rest of the channel. […]

tail bleeding in mice [10] = details: mice treated with ASA, previously seen (Decouture et al. 2019); cited from earlier work
[11] = two doses of 400 mg/kg NAC 6 hrs apart

VWF: VWF (Humate) added at 19 IU/mL to 10 mM NAC treated blood
Increase in lag time of recovery condition vs control (shift of control curve) (human whole blood [1]; 10 mM NAC + 19 IU vWF): 76 s | Occlusive thrombus formation after VWF addition (human whole blood [1]; 19 IU/mL VWF added to blood treated with 10 mM NAC): recover the ability to form rapid occlusive thrombi; also recorded: forms occlusive thrombi

CC(=O)N[C@@H](CS)C(=O)O [NAC, N-acetylcysteine]
Clot stability ([2]; 200 mg/kg NAC single injection): recanalized completely; also recorded: more likely to be unstable and recanalize | Flow after recanalization, of the initial flow ([2]; 200 mg/kg NAC single injection): ~100% | Clot stability ([2]; 400 mg/kg NAC 6 hrs prior to surgery, PBS immediately prior to crush injury): formed unstable thrombi | Occlusion ([2]; 400 mg/kg NAC I.V. single injection, N=3, 45 minutes of the experiment): no occlusion was observed; also recorded: completely prevented occlusion | Observations following administration ([2]; NAC I.V., single injection experiments): lower basal blood flow and initial labored breathing | Clot stability [2, 11]: majority forming unstable thrombi | Time to clotting [2, 11]: ≤ 10 min | Tissue at crush injury site [2, 11]: more severe tissue damage and hemorrhage | Estimated elimination half-life in mouse plasma [3]: 34 min | Average bleeding time (tail bleeding in mice [4]): 2.76 min | Oral bioavailability [5]: 4-9% | Platelet aggregation (RPA) rate normalized to the individual's control RPA rate ([6]; 3 mM NAC): 0.66 | Reduction of the maximum growth rate of thrombi ([6]; 3 mM NAC): 30% | Average lag time (time to 1% of maximal platelet intensity) ([6]; 3 mM NAC, 0 mM 49 s): 65 s | Platelet aggregation (RPA) rate normalized to the individual's control RPA rate ([6]; 5 mM NAC): 0.38 | Reduction of the maximum growth rate of thrombi ([6]; 5 mM NAC): 60% | Average lag time (time to 1% of maximal platelet intensity) ([6]; 5 mM NAC, 0 mM 49 s): 107 s | Visible platelet aggregation ([6]; 10 mM NAC, 1000 s of the experiment): no visible aggregation of platelets | Lag time (time to 1% of maximal platelet intensity) ([6]; 10 mM NAC, 0 mM 49 s): 910 s | Platelet aggregation (RPA) rate normalized to the individual's control RPA rate ([6]; 10 mM NAC, small negative value said to be an artifact): −0.12 | Visible platelet aggregation ([6]; 20 mM NAC): no visible platelet aggregation | Visible platelet aggregation ([6]; 40 mM NAC): no visible platelet aggregation | Visible platelet aggregation ([6]; NAC concentrations over 10 mM): no visible platelet aggregation | Mice that formed no thrombi and remained patent during the entire experiment [7]: Three of the 4 | Plasma concentration at 6 hrs, of the initial concentration [8]: < 0.05% | Average occlusion time (human whole blood [9]; 3 mM NAC): 255 s | Occlusion time, weak NAC responders (human whole blood [9]; 3 mM NAC): 182 s | Occlusion time, strong NAC responders (human whole blood [9]; 3 mM NAC): 328 s | Increase in occlusion time (human whole blood [9]; 3 mM and 5 mM conditions vs control): 125 to 325 s | Average occlusion time (human whole blood [9]; 5 mM NAC): 458 s | Occlusion time, weak NAC responders (human whole blood [9]; 5 mM NAC): 220 s | Occlusion time, strong NAC responders (human whole blood [9]; 5 mM NAC): 695 s | Samples not occluding within the time limit of the experiment (human whole blood [9]; 7.5 mM NAC, 3 individuals, 1000 s window): ~64% | Occlusion outcome (human whole blood [9]; 7.5 mM NAC, 1000 s window): results were mixed | Occlusion outcome (human whole blood [9]; 20 mM NAC): did not occlude | Occlusion outcome (human whole blood [9]; 40 mM NAC): did not occlude | Inflection point of 4-parameter logistic fit of occlusion time vs NAC dose (human whole blood [9]; r^2 = 0.782): 5.6545 mM | Logistic growth rate of 4-parameter logistic fit of occlusion time (human whole blood [9]; r^2 = 0.782): 0.7145 | Lower asymptote of 4-parameter logistic fit of occlusion time (human whole blood [9]; r^2 = 0.782): 118.5 s | Upper asymptote of 4-parameter logistic fit of occlusion time (human whole blood [9]; r^2 = 0.782): 1028.4 s

CC(=O)Oc1ccccc1C(=O)O [ASA]
Average bleeding time (tail bleeding in mice [10]): 5.72 min

Source: patent US20250367151A1, “ANTI-VWF THERAPEUTIC FOR PREVENTING ARTERIAL THROMBI” (GEORGIA TECH RESEARCH CORPORATION, priority 2022, published 2025)
